Our source for the EC50 values is patent publication US9499550B2 (BRISTOL-MYERS SQUIBB COMPANY, priority 2012, dated 2016).

Usually EC50 stands for the concentration giving half of the maximal effect.

Assay [1] deals with HCV genotype 1b (Con1) replicon in HUH-7 cells. The assay is described as follows: HCV replicon luciferase reporter assay, genotype 1b. In kind it is cell-based. As to conditions: Hepatitis C virus, Huh-7, 72 h, HCV genotype 1b replicon luciferase, 3 days incubation, read-out: LE_1b (EC50, range). The essentials:
(§1)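 Replicon inhibition for both genotypes was measured as Renilla luciferase signal (EnduRen, 7.5 μM final, 2 h) after 3-day, 37° C exposure of replicon-bearing HUH-7 cells in 4% FCS DMEM, 0.5% DMSO. The 1b construct carries S1179I; the 1a H77 construct carries P1496L and S2204I. Twenty-point, 3-fold dilutions were fitted four-parametrically for EC50, and CC50 was taken from multiplexed Cell Titer-Blue.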
In general terms: Replicon systems follow genome replication, usually without infectious particles.

Assay [2] has as its system HCV genotype 1a (H77 strain) replicon in HUH-7 cells. The assay is described as follows: HCV replicon luciferase reporter assay, genotype 1a. As to conditions: Hepatitis C virus, Huh-7, 72 h, HCV genotype 1a replicon luciferase, 3 days incubation, read-out: LE_1a (EC50, range). In kind it is cell-based. Put shortly: as §1

Turning to `CCOc1ccc2c(O[C@@H]3C[C@H]4C(=O)N[C@]5(C(=O)NS(=O)(=O)C6CC6)C[C@H]5/C=C\CC[C@@H](C)C[C@@H](C)[C@H](NC(=O)OC(C)(C)C)C(=O)N4C3)nccc2c1` [Compound 5128, tert-butyl ((2R,6S,7R,9R,13aS,14aR,16aS,Z)-14a-((cyclopropylsulfonyl)carbamoyl)-2-((6-ethoxyisoquinolin-1-yl)oxy)-7,9-dimethyl-5,16-dioxo-1,2,3,5,6,7,8,9,10,11,13a,14,14a,15,16,16a-hexadecahydrocyclopropa[e]pyrrolo[1,2-a][1,4]diazacyclopentadecin-6-yl)carbamate], the EC50 in assay [1] and in assay [2] was < 5.46 nM in each case.

On to `CCOc1ccc2c(O[C@@H]3C[C@H]4C(=O)N[C@]5(C(=O)NS(=O)(=O)C6(C)CC6)C[C@H]5/C=C\CC[C@H](C)C[C@@H](C)[C@H](NC(=O)OC(C)(C)C)C(=O)N4C3)nccc2c1` [Compound 5133, tert-butyl ((2R,6S,7R,9S,13aS,14aR,16aS,Z)-2-((6-ethoxyisoquinolin-1-yl)oxy)-7,9-dimethyl-14a-(((1-methylcyclopropyl)sulfonyl)carbamoyl)-5,16-dioxo-1,2,3,5,6,7,8,9,10,11,13a,14,14a,15,16,16a-hexadecahydrocyclopropa[e]pyrrolo[1,2-a][1,4]diazacyclopentadecin-6-yl)carbamate], for which the EC50 in assay [1] is < 5.46 nM; in assay [2], 4.82 to 103 nM.

In the case of `CCOc1ccc2c(O[C@@H]3C[C@H]4C(=O)N[C@]5(C(=O)NS(=O)(=O)C6(C)CC6)C[C@H]5/C=C\CC[C@@H](C)C[C@@H](C)[C@H](NC(=O)OC(C)(C)C)C(=O)N4C3)nccc2c1` [Compound 5134, tert-butyl ((2R,6S,7R,9R,13aS,14aR,16aS,Z)-2-((6-ethoxyisoquinolin-1-yl)oxy)-7,9-dimethyl-14a-(((1-methylcyclopropyl)sulfonyl)carbamoyl)-5,16-dioxo-1,2,3,5,6,7,8,9,10,11,13a,14,14a,15,16,16a-hexadecahydrocyclopropa[e]pyrrolo[1,2-a][1,4]diazacyclopentadecin-6-yl)carbamate], the EC50 in assay [1] and in assay [2] was < 5.46 nM throughout.

Take `CCOc1ccc2c(O[C@@H]3C[C@H]4C(=O)N[C@]5(C(=O)NS(=O)(=O)C6(C)CC6)C[C@H]5/C=C\CC[C@H](C)C[C@@H](C)[C@H](NC(=O)OCC5(C)CC5)C(=O)N4C3)nccc2c1` [Compound 5139, (1-methylcyclopropyl)methyl ((2R,6S,7R,9S,13aS,14aR,16aS,Z)-2-((6-ethoxyisoquinolin-1-yl)oxy)-7,9-dimethyl-14a-(((1-methylcyclopropyl)sulfonyl)carbamoyl)-5,16-dioxo-1,2,3,5,6,7,8,9,10,11,13a,14,14a,15,16,16a-hexadecahydrocyclopropa[e]pyrrolo[1,2-a][1,4]diazacyclopentadecin-6-yl)carbamate]: the EC50 in assay [1] is < 5.46 nM; in assay [2] it was 4.82 to 103 nM.

As to `CCOc1ccc2c(O[C@@H]3C[C@H]4C(=O)N[C@]5(C(=O)NS(=O)(=O)C6(C)CC6)C[C@H]5/C=C\CC[C@@H](C)C[C@@H](C)[C@H](NC(=O)OCC5(C)CC5)C(=O)N4C3)nccc2c1` [Compound 5140, (1-methylcyclopropyl)methyl ((2R,6S,7R,9R,13aS,14aR,16aS,Z)-2-((6-ethoxyisoquinolin-1-yl)oxy)-7,9-dimethyl-14a-(((1-methylcyclopropyl)sulfonyl)carbamoyl)-5,16-dioxo-1,2,3,5,6,7,8,9,10,11,13a,14,14a,15,16,16a-hexadecahydrocyclopropa[e]pyrrolo[1,2-a][1,4]diazacyclopentadecin-6-yl)carbamate], the EC50 in assay [1] and in assay [2] was < 5.46 nM in each case.

Take `CCOc1ccc2c(O[C@@H]3C[C@H]4C(=O)N[C@]5(C(=O)NS(=O)(=O)C6(C)CC6)C[C@H]5/C=C\CC[C@H](C)C[C@@H](C)[C@H](NC(=O)O[C@H](C)C(F)(F)F)C(=O)N4C3)nccc2c1` [Compound 5141, (R)-1,1,1-trifluoropropan-2-yl ((2R,6S,7R,9S,13aS,14aR,16aS,Z)-2-((6-ethoxyisoquinolin-1-yl)oxy)-7,9-dimethyl-14a-(((1-methylcyclopropyl)sulfonyl)carbamoyl)-5,16-dioxo-1,2,3,5,6,7,8,9,10,11,13a,14,14a,15,16,16a-hexadecahydrocyclopropa[e]pyrrolo[1,2-a][1,4]diazacyclopentadecin-6-yl)carbamate]: the EC50 in assay [1] was < 5.46 nM; in assay [2] it was 4.82 to 103 nM.

Take `CCOc1ccc2c(O[C@@H]3C[C@H]4C(=O)N[C@]5(C(=O)NS(=O)(=O)C6(C)CC6)C[C@H]5/C=C\CC[C@@H](C)C[C@@H](C)[C@H](NC(=O)O[C@H](C)C(F)(F)F)C(=O)N4C3)nccc2c1` [Compound 5142, (R)-1,1,1-trifluoropropan-2-yl ((2R,6S,7R,9R,13aS,14aR,16aS,Z)-2-((6-ethoxyisoquinolin-1-yl)oxy)-7,9-dimethyl-14a-(((1-methylcyclopropyl)sulfonyl)carbamoyl)-5,16-dioxo-1,2,3,5,6,7,8,9,10,11,13a,14,14a,15,16,16a-hexadecahydrocyclopropa[e]pyrrolo[1,2-a][1,4]diazacyclopentadecin-6-yl)carbamate]: the EC50 in assay [1] and in assay [2] was < 5.46 nM in each case.

On to `CCOc1ccc2c(O[C@@H]3C[C@H]4C(=O)N[C@]5(C(=O)NS(=O)(=O)C6(C)CC6)C[C@H]5/C=C\CC[C@H](C)C[C@@H](C)[C@H](NC(=O)NC(C)(C)C(F)(F)F)C(=O)N4C3)nccc2c1` [Compound 5143, (2R,6S,7R,9S,13aS,14aR,16aS,Z)-2-((6-ethoxyisoquinolin-1-yl)oxy)-7,9-dimethyl-N-((1-methylcyclopropyl)sulfonyl)-5,16-dioxo-6-(3-(1,1,1-trifluoro-2-methylpropan-2-yl)ureido)-1,2,3,5,6,7,8,9,10,11,13a,14,14a,15,16,16a-hexadecahydrocyclopropa[e]pyrrolo[1,2-a][1,4]diazacyclopentadecine-14a-carboxamide], for which the EC50 in assay [1] was < 5.46 nM; in assay [2], 4.82 to 103 nM.

As for `CCOc1ccc2c(O[C@@H]3C[C@H]4C(=O)N[C@]5(C(=O)NS(=O)(=O)C6(C)CC6)C[C@H]5/C=C\CC[C@@H](C)C[C@@H](C)[C@H](NC(=O)NC(C)(C)C(F)(F)F)C(=O)N4C3)nccc2c1` [Compound 5144, (2R,6S,7R,9R,13aS,14aR,16aS,Z)-2-((6-ethoxyisoquinolin-1-yl)oxy)-7,9-dimethyl-N-((1-methylcyclopropyl)sulfonyl)-5,16-dioxo-6-(3-(1,1,1-trifluoro-2-methylpropan-2-yl)ureido)-1,2,3,5,6,7,8,9,10,11,13a,14,14a,15,16,16a-hexadecahydrocyclopropa[e]pyrrolo[1,2-a][1,4]diazacyclopentadecine-14a-carboxamide], the EC50 was < 5.46 nM in assay [1] and 4.82 to 103 nM in assay [2].

In the case of `CC(C)Oc1ccc2c(O[C@@H]3C[C@H]4C(=O)N[C@]5(C(=O)NS(=O)(=O)C6CC6)C[C@H]5/C=C\CC[C@H](C)C[C@@H](C)[C@H](NC(=O)OC(C)(C)C)C(=O)N4C3)nccc2c1` [Compound 5145, tert-butyl ((2R,6S,7R,9S,13aS,14aR,16aS,Z)-14a-((cyclopropylsulfonyl)carbamoyl)-2-((6-isopropoxyisoquinolin-1-yl)oxy)-7,9-dimethyl-5,16-dioxo-1,2,3,5,6,7,8,9,10,11,13a,14,14a,15,16,16a-hexadecahydrocyclopropa[e]pyrrolo[1,2-a][1,4]diazacyclopentadecin-6-yl)carbamate], the EC50 in assay [1] was < 5.46 nM; in assay [2], 4.82 to 103 nM.

As for `CC(C)Oc1ccc2c(O[C@@H]3C[C@H]4C(=O)N[C@]5(C(=O)NS(=O)(=O)C6CC6)C[C@H]5/C=C\CC[C@@H](C)C[C@@H](C)[C@H](NC(=O)OC(C)(C)C)C(=O)N4C3)nccc2c1` [Compound 5146, tert-butyl ((2R,6S,7R,9R,13aS,14aR,16aS,Z)-14a-((cyclopropylsulfonyl)carbamoyl)-2-((6-isopropoxyisoquinolin-1-yl)oxy)-7,9-dimethyl-5,16-dioxo-1,2,3,5,6,7,8,9,10,11,13a,14,14a,15,16,16a-hexadecahydrocyclopropa[e]pyrrolo[1,2-a][1,4]diazacyclopentadecin-6-yl)carbamate], the EC50 in assay [1] and in assay [2] was < 5.46 nM throughout.

Turning to `CC(C)Oc1ccc2c(O[C@@H]3C[C@H]4C(=O)N[C@]5(C(=O)NS(=O)(=O)C6CC6)C[C@H]5/C=C\CC[C@H](C)C[C@@H](C)[C@H](NC(=O)OC(C)(C)C(F)(F)F)C(=O)N4C3)nccc2c1` [Compound 5147, 1,1,1-trifluoro-2-methylpropan-2-yl((2R,6S,7R,9S,13aS,14aR,16aS,Z)-14a-((cyclopropylsulfonyl)carbamoyl)-2-((6-isopropoxyisoquinolin-1-yl)oxy)-7,9-dimethyl-5,16-dioxo-1,2,3,5,6,7,8,9,10,11,13a,14,14a,15,16,16a-hexadecahydrocyclopropa[e]pyrrolo[1,2-a][1,4]diazacyclopentadecin-6-yl)carbamate], the EC50 in assay [1] and in assay [2] was 4.82 to 103 nM in each case.

In the case of `CC(C)Oc1ccc2c(O[C@@H]3C[C@H]4C(=O)N[C@]5(C(=O)NS(=O)(=O)C6CC6)C[C@H]5/C=C\CC[C@@H](C)C[C@@H](C)[C@H](NC(=O)OC(C)(C)C(F)(F)F)C(=O)N4C3)nccc2c1` [Compound 5148, 1,1,1-trifluoro-2-methylpropan-2-yl((2R,6S,7R,9R,13aS,14aR,16aS,Z)-14a-((cyclopropylsulfonyl)carbamoyl)-2-((6-isopropoxyisoquinolin-1-yl)oxy)-7,9-dimethyl-5,16-dioxo-1,2,3,5,6,7,8,9,10,11,13a,14,14a,15,16,16a-hexadecahydrocyclopropa[e]pyrrolo[1,2-a][1,4]diazacyclopentadecin-6-yl)carbamate], the EC50 in assay [1] and in assay [2] was < 5.46 nM each time.
